Experimental data reported in patent publication US11046716B2, “Beta-lactamase inhibitors” (priority 2015, dated 2021).
Like-named read-outs stand apart in the source and are kept apart here.

Experiments:
SHV-5 = molecular target: T1, SHV-5 (Klebsiella pneumoniae, UniProt P0A3M1); assay: β-lactamase enzyme inhibition assay, SHV-5 (cefotaxime substrate); format: biochemical
T1 construct: made in house; host or cells: E. coli BL21(DE3)
Description: (§1) For SHV-5, Kpc-2, p99AmpC and OXA-1 β-lactamases, E. coli BL21(DE3) bacterial cells carrying expression plasmids (expressed as native untagged proteins) for the individual β-lactamases were grown in 1 L of Superbroth (Teknova Inc. Hollister, Calif.) supplemented with 100 μg/ml kanamycin selection and 1×5052 (0.5% glycerol, 0.05% glucose and 0.2% α-lactose) at 35° C. for 18-20 hours. Cells were harvested by centrifugation (4,000×g, 4° C., 20 min), resuspended in 50 ml of 10 mM HEPES pH 7.5 ( 1/20 of the initial volume). The cells were lysed by sonication (5 pulses of 45 seconds) at 45 W on ice. The lysates were clarified by centrifugation at 10,000×g for 40 minutes at 4° C. Samples were diluted 5-fold in 50 mM sodium acetate pH 5.0, stored overnight at 4° C., after which they were centrifuged at 10,000×g for 30 minutes to clarify, and filtered through 0.45 μm filters. The samples were loaded onto a 5 ml Capto S sepharose cation exchange column (GE Healthcare) pre-equilibrated with 50 mM sodium acetate pH 5.0. The column was washed with 5 column volumes of 50 mM sodium acetate pH 5.0 to wash out unbound protein and a linear gradient of NaCl (0 to 500 mM) was used to elute the protein (over 16 CV) from the column. Fractions were assayed for β-lactamase activity using Centa (Calbiochem, Gibbstown, N.J.) or Nitrocefin (EMD Millipore chemicals, Darmstadt, Germany) as a reporter β-lactamase substrate for activity in the isolated fractions. Active fractions were pooled, concentrated and further purified by gel filtration chromatography on a Superdex 75 prep grade gel filtration column (GE Healthcare, Piscataway, N.J.) pre-equilibrated in 50 mM Hepes pH 7.5, 150 mM NaCl. Active fractions were pooled concentrated, quantitated by BCA protein determination (Thermo Scientific, Rockford, Ill.), dialyzed into PBS and frozen at −80° C. in 20% glycerol until use.
(§2) An equal volume of diluted enzyme stock was added, and the plates were incubated at 37° C. for 15 min. Nitrocefin was used as substrate for p99 AmpC, VIM-2 and OXA-1 and dispensed into each well at a final concentration of 100 μM. Absorbance at 486 nm was immediately monitored for 10 min using a Biotek Powerwave XS2 microplate spectrophotometer using the GEN5 software package (Biotek Instruments, Winooski Vt.). In an analogous fashion, imipenem was used as substrate for Kpc-2 and Cefotaxime was used for SHV-5, while changes in absorbance upon hydrolysis of the β-lactam ring were monitored at 300 nm and 260 nm respectively in UV-transparent 96-well microtiter assay plates. Maximum rates of hydrolysis were compared to those in control wells (without inhibitors), and percentages of enzyme inhibition were calculated for each concentration of inhibitor. The concentration of inhibitor needed to reduce the initial rate of hydrolysis of substrate by 50% (IC50) was calculated as the residual activity of β-lactamase at 486 nm using GraFit version 7 kinetics software package (Erithacus Software, Surrey, UK).
(§3) Using the methodology described above, examples of the current invention were evaluated for their ability to inhibit β-lactamase enzymes from all four Ambler classifications (A through D). […] NT=Not tested.

KPC-2 = molecular target: T2, KPC-2 (Klebsiella pneumoniae, UniProt Q9F663); assay: β-lactamase enzyme inhibition assay, KPC-2 (imipenem substrate); format: biochemical
T2 construct: made in house; host or cells: E. coli BL21(DE3)
T2 sequence (Q9F663 25-293, looked up): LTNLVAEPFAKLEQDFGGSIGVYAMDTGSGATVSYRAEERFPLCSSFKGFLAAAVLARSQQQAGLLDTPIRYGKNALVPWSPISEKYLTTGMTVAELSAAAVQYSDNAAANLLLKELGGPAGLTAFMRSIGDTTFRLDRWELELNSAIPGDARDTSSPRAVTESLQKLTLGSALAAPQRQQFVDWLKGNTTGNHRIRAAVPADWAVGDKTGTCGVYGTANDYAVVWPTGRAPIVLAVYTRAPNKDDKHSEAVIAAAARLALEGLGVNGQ
Description: as §1, §2, §3

VIM-2 = molecular target: T3, VIM-2 (Escherichia coli, UniProt Q5U7L7); assay: β-lactamase enzyme inhibition assay, VIM-2 (nitrocefin substrate); format: biochemical
T3 construct: made in house; host or cells: E. coli BL21(DE3)
Description: For Vim-2 metallo β-lactamase, the procedure was identical with the following exceptions, first the protein was not pH adjusted to pH 5 with 50 mM sodium acetate, second, the chromatography step was changed to a 5 ml Q sepharose anion exchange column pre-equilibrated with 50 mM Hepes pH 7.5, and elution of the protein was achieved by a linear gradient of NaCl (0-600 mM). Finally, the VIM-2 purification required a second run (3rd step) on the Q sepharose anion exchange column to achieve acceptable purity (>90%).
as §2, §3

AmpC = molecular target: T4, AmpC (Enterobacter cloacae, UniProt P05364); assay: β-lactamase enzyme inhibition assay, p99 AmpC (nitrocefin substrate); format: biochemical
T4 construct: made in house; host or cells: E. coli BL21(DE3)
T4 sequence (P05364 21-381): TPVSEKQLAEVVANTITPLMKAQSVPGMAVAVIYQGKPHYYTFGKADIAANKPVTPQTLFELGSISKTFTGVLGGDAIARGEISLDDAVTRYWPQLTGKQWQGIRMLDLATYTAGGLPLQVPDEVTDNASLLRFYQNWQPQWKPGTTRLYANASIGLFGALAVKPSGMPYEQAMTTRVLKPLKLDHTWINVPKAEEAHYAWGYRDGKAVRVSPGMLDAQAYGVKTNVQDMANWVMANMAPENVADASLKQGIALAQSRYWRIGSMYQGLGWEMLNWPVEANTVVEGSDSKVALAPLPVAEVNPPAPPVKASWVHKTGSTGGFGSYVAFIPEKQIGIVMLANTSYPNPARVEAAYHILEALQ
Description: as §1, §2, §3

OXA-48 = OXA-48 (UniProt Q6XEC0); assay: β-lactamase enzyme inhibition assay, Class D oxacillinase; format: biochemical; conditions: read-out: OXA-48
[1] = test system: E. coli expressing the Class A Extended Spectrum Beta-Lactamase (ESBL) CTX-M-15; assay: Broth microdilution MIC assay with ceftazidime, E. coli CTX-M-15; format: cell-based; conditions: Fixed CAZ (ceftazidime) 4 μg/mL; E. coli ESBL4 CTX-M-15
Text: (§4) To determine the ability of test compounds to potentiate the inhibition of the growth of bacterial strains that produce beta-lactamase enzymes in the presence of a β-lactam antibiotic, classic cell based broth microdilution MIC assays were employed. Six bacteria strains producing beta-lactamase enzymes were used: E. coli expressing the Class A Extended Spectrum Beta-Lactamase (ESBL) CTX-M-15, E. cloacae expressing the Class C P99, K. pneumoniae expressing the Class A carbapenemase KPC-2, P. aeruginosa expressing the Class B carbapenemase VIM-2, K. pneumoniae expressing the class A carbapenemase KPC-2 and the class B carbapenemase VIM-4, and K. pneumoniae producing the Class D carbapenemase OXA-48. The assay was conducted in Cation Adjusted Mueller Hinton Broth (CAMHB, BD #212322, BD Diagnostic Systems, Sparks, Md.). Bacteria strains were grown for 3-5 hours in CAMBH broth. Test compounds (Examples 1-94) were added to a microtiter plate in 2-fold serial dilutions in CAMHB in a final concentration range of 16 μg/mL to 0.125 μg/ml. An overlay of CAMHB containing a Beta-lactam was added to the compounds at a final static concentration of 4 μg/ml. […] In addition to the titration of test compounds the MICs of a panel of control beta-lactams is also tested to ensure the strains are behaving consistently from test to test. Once the test compound and antibiotics are added the plates can be inoculated according to CLSI broth microdilution method. After inoculation the plates are incubated for 16-20 hours at 37° C. then the Minimal Inhibitory Concentration (MIC) of the test compound is determined visually.
(§5) Using the methodology described above, examples of the current invention were evaluated for their ability to inhibit the growth of β-lactamase-producing bacteria in the presence of a β-lactam antibiotic.

[2] = test system: K. pneumoniae expressing the Class A carbapenemase KPC-2; assay: Broth microdilution MIC assay with meropenem, K. pneumoniae KPC-2; format: cell-based; conditions: for MIC (μg/mL) of Exemplary Compounds in presence of fixed β-lactams: K. p. 156319 KPC-3: Fixed Mero (meropenem) 4 μg/mL
Text: as §4, §5

[3] = test system: P. aeruginosa expressing the Class B carbapenemase VIM-2; assay: Broth microdilution MIC assay with meropenem, P. aeruginosa VIM-2; format: cell-based; conditions: for MIC (μg/mL) of Exemplary Compounds in presence of fixed β-lactams: P. aerug. 2775 VIM-2: Fixed Mero (meropenem) 4 μg/mL
Text: as §4, §5

[4] = test system: K. pneumoniae expressing the class A carbapenemase KPC-2 and the class B carbapenemase VIM-4; assay: Broth microdilution MIC assay with meropenem, K. pneumoniae KPC-2 and VIM-4; format: cell-based; conditions: for MIC (μg/mL) of Exemplary Compounds in presence of fixed β-lactams: K. p. A-1797 KPC-2 VIM-4: Fixed Mero (meropenem) 4 μg/mL
Text: as §4, §5

[5] = test system: K. pneumoniae producing the Class D carbapenemase OXA-48; assay: Broth microdilution MIC assay with meropenem, K. pneumoniae OXA-48; format: cell-based; conditions: for MIC (μg/mL) of Exemplary Compounds in presence of fixed β-lactams: K. p. 11978 OXA-48: Fixed Mero (meropenem) 4 μg/mL
Text: as §4, §5

[6] = Class A, imipenem substrate, 300 nm, read-out: KPC-2
[7] = Class B, nitrocefin substrate, 486 nm, read-out: VIM-2
[8] = Klebsiella pneumoniae, read-out: MIC alone

T1 sequence (P0A3M1 22-286): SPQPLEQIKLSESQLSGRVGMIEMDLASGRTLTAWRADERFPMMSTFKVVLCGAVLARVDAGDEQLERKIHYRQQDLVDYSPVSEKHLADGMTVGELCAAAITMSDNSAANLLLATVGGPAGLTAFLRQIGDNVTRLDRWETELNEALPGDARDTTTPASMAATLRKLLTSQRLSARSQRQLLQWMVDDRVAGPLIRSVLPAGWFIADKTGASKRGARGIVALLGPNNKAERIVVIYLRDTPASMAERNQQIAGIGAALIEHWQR

Row | SMILES | IC50 (SHV-5) [nM] | IC50 (KPC-2; [6]) [nM] | IC50 (VIM-2; [7]) [nM] | IC50 (AmpC) [nM] | IC50 (OXA-48) [nM] | MIC (μg/mL) of Exemplary Compounds in presence of fixed β-lactams: E. coli ESBL4 CTX-M-15 [1] | MIC (μg/mL) of Exemplary Compounds in presence of fixed β-lactams: K. p. 156319 KPC-3 [2] | MIC (μg/mL) of Exemplary Compounds in presence of fixed β-lactams: P. aerug. 2775 VIM-2 [3] | MIC (μg/mL) of Exemplary Compounds in presence of fixed β-lactams: K. p. A-1797 KPC-2 VIM-4 [4] | MIC (μg/mL) of Exemplary Compounds in presence of fixed β-lactams: K. p. 11978 OXA-48 [5] | IC50 (KPC-2) [nM] | IC50 (VIM-2) [nM] | MIC [2, 8] [µg/mL] | MIC ([3]; Pseudomonas aeruginosa, read-out: MIC alone) [µg/mL] | MIC [4, 8] [µg/mL] | MIC [5, 8] [µg/mL]
1 | NCC#Cc1c(CN)nnn1CC(=O)N[C@H]1Cc2cccc(C(=O)O)c2OB1O [Example 109, (R)-3-(2-(4-(aminomethyl)-5-(3-aminoprop-1-yn-1-yl)-1H-1,2,3-triazol-1-yl)acetamido)-2-hydroxy-3,4-dihydro-2H-benzo[e][1,2]oxaborinine-8-carboxylic acid] | 100 to 1000 | 100 to 1000 | < 100 | 100 to 1000 | < 100 | C (C represents an MIC of <1 μg/mL) | B (B represents an MIC between 1 and 16 μg/mL inclusive) | C (C represents an MIC of <1 μg/mL) | C (C represents an MIC of <1 μg/mL) | B (B represents an MIC between 1 and 16 μg/mL inclusive) | – | – | – | – | – | –
2 | C[Si](C)(C)c1cn(CC(=O)N[C@H]2Cc3cccc(C(=O)O)c3OB2O)nn1 [Example 9, (R)-2-hydroxy-3-(2-(4-(trimethylsilyl)-1H-1,2,3-triazol-1-yl)acetamido)-3,4-dihydro-2H-benzo[e][1,2]oxaborinine-8-carboxylic acid] | < 100 | – | – | < 100 | 100 to 1000 | B (B represents an MIC between 1 and 16 μg/mL inclusive) | A (A represents an MIC>16 μg/mL) | – | A (A represents an MIC>16 μg/mL) | A (A represents an MIC>16 μg/mL) | < 100 | 1000 to 10000 | – | – | – | –
3 | O=C(Cn1cc(CNCCCC(F)(F)F)nn1)N[C@H]1Cc2cccc(C(=O)O)c2OB1O [Example 112, (R)-2-hydroxy-3-(2-(4-(((4,4,4-trifluorobutyl)amino)methyl)-1H-1,2,3-triazol-1-yl)acetamido)-3,4-dihydro-2H-benzo[e][1,2]oxaborinine-8-carboxylic acid] | 100 to 1000 | 100 to 1000 | 100 to 1000 | < 100 | 100 to 1000 | C (C represents an MIC of <1 μg/mL) | B (B represents an MIC between 1 and 16 μg/mL inclusive) | C (C represents an MIC of <1 μg/mL) | B (B represents an MIC between 1 and 16 μg/mL inclusive) | A (A represents an MIC>16 μg/mL) | – | – | – | – | – | –
4 | O=C(Cn1ccc(B(O)O)n1)N[C@H]1Cc2cccc(C(=O)O)c2OB1O [Example 116, (R)-3-(2-(3-borono-1H-pyrazol-1-yl)acetamido)-2-hydroxy-3,4-dihydro-2H-benzo[e][1,2]oxaborinine-8-carboxylic acid] | < 100 | < 100 | 1000 to 10000 | < 100 | 100 to 1000 | C (C represents an MIC of <1 μg/mL) | B (B represents an MIC between 1 and 16 μg/mL inclusive) | C (C represents an MIC of <1 μg/mL) | B (B represents an MIC between 1 and 16 μg/mL inclusive) | B (B represents an MIC between 1 and 16 μg/mL inclusive) | – | – | – | – | – | –
5 | C[C@@H](O)[C@H]1C(=O)N2C(C(=O)O)=C(S[C@@H]3CN[C@H](C(=O)N(C)C)C3)[C@H](C)[C@H]12 [Meropenem, meropenem, reference compound] | – | – | – | – | – | – | – | – | – | – | – | – | > 128 | 16 | 64 | 128
6 | CCOC(=O)c1nnn(CC(=O)N[C@H]2Cc3cccc(C(=O)O)c3OB2O)c1C(=O)OCC [Example 11, (R)-3-(2-(4,5-bis(ethoxycarbonyl)-1H-1,2,3-triazol-1-yl)acetamido)-2-hydroxy-3,4-dihydro-2H-benzo[e][1,2]oxaborinine-8-carboxylic acid] | < 100 | < 100 | 1000 to 10000 | < 100 | < 100 | B (B represents an MIC between 1 and 16 μg/mL inclusive) | B (B represents an MIC between 1 and 16 μg/mL inclusive) | – | B (B represents an MIC between 1 and 16 μg/mL inclusive) | A (A represents an MIC>16 μg/mL) | – | – | – | – | – | –
